In general, pKi refers to the negative decadic logarithm of the Ki, by convention in mol/L. Higher therefore signals a small Ki.

Two compounds from BindingDB's records for doi:10.1016/s0960-894x(98)00284-4 (Glaxowellcome, 1998) can be followed below.

This assay has as its target Glutamate receptor ionotropic, NMDA 1 (Rattus norvegicus, UniProt P35439). Description: ChEBML_140329. The protocol: In vitro affinity of compound for the glycinergic site associated with NMDA receptor was assessed by inhibition of the binding of [3H]glycine

The structures appear in SMILES notation. pKi: −log10 of the molar value.

As to `O=C(O)c1[nH]c2cc(Cl)cc(Cl)c2c1/C=C1\CCCN(c2ccccc2)C1=O`, the negative-log Ki (pKi) is 8.14.
In the case of `O=C(O)c1[nH]c2cc(Cl)cc(Cl)c2c1/C=C1\CCN(c2ccccc2)C1=O`, the pKi was 8.12.
